Tested on: NCI-H1417 complex spheroids, growth % test/control
Assay: Anticancer human tumor NCI-H1417 cell line growth inhibition [Asc];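 note: spheroids exposed to compounds for 7 days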;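 for viability, T/C: 100% = DMSO vehicle control wells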
Settings: for IC50: curve of first compound; for viability, T/C: stronger effect = lower value
Summary of the method: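 Concentration series start at each agent's clinical Cmax, or at 10 microM when none is established, and drop in half-log steps; agents are applied alone or together to complex spheroids built with HUVEC and hMSC.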

[1] = second compound 0.03 µM, first compound 0.0316 µM
[2] = second compound 0.03 µM, first compound 0.1 µM
[3] = second compound 0.03 µM, first compound 0.316 µM
[4] = second compound 0.03 µM, first compound 1 µM
[5] = second compound 0.03 µM, first compound 3.16 µM
[6] = second compound 0.03 µM, first compound 10 µM
[7] = second compound 0.0949 µM, first compound 0.0316 µM
[8] = second compound 0.0949 µM, first compound 0.1 µM
[9] = second compound 0.0949 µM, first compound 0.316 µM
[10] = second compound 0.0949 µM, first compound 1 µM
[11] = second compound 0.0949 µM, first compound 3.16 µM
[12] = second compound 0.0949 µM, first compound 10 µM
[13] = second compound 0.3 µM, first compound 0.0316 µM
[14] = second compound 0.3 µM, first compound 0.1 µM
[15] = second compound 0.3 µM, first compound 0.316 µM
[16] = second compound 0.3 µM, first compound 1 µM
[17] = second compound 0.3 µM, first compound 3.16 µM
[18] = second compound 0.3 µM, first compound 10 µM
[19] = second compound 0.949 µM, first compound 0.0316 µM
[20] = second compound 0.949 µM, first compound 0.1 µM
[21] = second compound 0.949 µM, first compound 0.316 µM
[22] = second compound 0.949 µM, first compound 1 µM
[23] = second compound 0.949 µM, first compound 3.16 µM
[24] = second compound 0.949 µM, first compound 10 µM
[25] = second compound 3 µM, first compound 0.0316 µM
[26] = second compound 3 µM, first compound 0.1 µM
[27] = second compound 3 µM, first compound 0.316 µM
[28] = second compound 3 µM, first compound 1 µM
[29] = second compound 3 µM, first compound 3.16 µM
[30] = second compound 3 µM, first compound 10 µM
[31] = second compound 0.03 µM, first compound 0.00316 µM
[32] = second compound 0.03 µM, first compound 0.01 µM
[33] = second compound 0.0949 µM, first compound 0.00316 µM
[34] = second compound 0.0949 µM, first compound 0.01 µM
[35] = second compound 0.3 µM, first compound 0.00316 µM
[36] = second compound 0.3 µM, first compound 0.01 µM
[37] = second compound 0.949 µM, first compound 0.00316 µM
[38] = second compound 0.949 µM, first compound 0.01 µM
[39] = second compound 3 µM, first compound 0.00316 µM
[40] = second compound 3 µM, first compound 0.01 µM

Structure (SMILES) | IC50 (second compound 0.03 µM) [µM] | IC50 (second compound 0.0949 µM) [µM] | IC50 (second compound 0.3 µM) [µM] | IC50 (second compound 0.949 µM) [µM] | IC50 (second compound 3 µM) [µM] | viability, T/C [1] [%] | viability, T/C [2] [%] | viability, T/C [3] [%] | viability, T/C [4] [%] | viability, T/C [7] [%] | viability, T/C [8] [%] | viability, T/C [9] [%] | viability, T/C [10] [%] | viability, T/C [13] [%] | viability, T/C [14] [%] | viability, T/C [15] [%] | viability, T/C [16] [%] | viability, T/C [19] [%] | viability, T/C [20] [%] | viability, T/C [21] [%] | other results
C#Cc1c(F)ccc2cc(O)cc(-c3ncc4c(N5CC6CCC(C5)N6)nc(OCC56CCCN5CC(F)C6)nc4c3F)c12 (stereo not given) + CCN1C(C(=O)NC23CCC(C(=O)O)(CC2)CC3)C(c2cccc(Cl)c2F)C2(C(=O)Nc3cc(Cl)ccc32)C12CCCCC2 | > 10 | > 10 | > 10 | > 10 | > 10 | 101 | 106 | 106 | 102 | 107 | 103 | 93.9 | 95.2 | 98.2 | 94.7 | 94.8 | 105 | 88.2 | 96.9 | 97.3 | viability, T/C [5]: 103%; viability, T/C [6]: 111%; viability, T/C [11]: 108%; viability, T/C [12]: 109%; viability, T/C [17]: 108%; viability, T/C [18]: 108%; viability, T/C [22]: 88.3%; viability, T/C [23]: 84%; viability, T/C [24]: 77.3%; viability, T/C [25]: 91%; viability, T/C [26]: 88.1%; viability, T/C [27]: 105%; viability, T/C [28]: 88.7%; viability, T/C [29]: 89.5%; viability, T/C [30]: 95.7%
C=C(F)C(=O)N1CCN(c2nc(OCC3CCCN3C)nc3c2CCN(c2cccc4cccc(Cl)c24)C3)CC1CC#N (stereo not given) + CCN1C(C(=O)NC23CCC(C(=O)O)(CC2)CC3)C(c2cccc(Cl)c2F)C2(C(=O)Nc3cc(Cl)ccc32)C12CCCCC2 | 3.58 | 3.25 | 3.33 | 2.77 | 2.25 | 107 | 111 | 102 | 95.4 | 97.9 | 93.6 | 100 | 91 | 103 | 98.5 | 97.4 | 87 | 100 | 102 | 85.5 | viability, T/C [5]: 55.8%; viability, T/C [6]: 0.19%; viability, T/C [11]: 51.3%; viability, T/C [12]: 0.19%; viability, T/C [17]: 52.3%; viability, T/C [18]: 0.17%; viability, T/C [22]: 82.4%; viability, T/C [23]: 44.9%; viability, T/C [24]: 0.19%; viability, T/C [25]: 93.3%; viability, T/C [26]: 89.9%; viability, T/C [27]: 86.1%; viability, T/C [28]: 79.1%; viability, T/C [29]: 37.8%; viability, T/C [30]: 0.4%
C=CC(=O)N1CCN(c2nc(=O)n(-c3c(C)ccnc3C(C)C)c3nc(-c4c(O)cccc4F)c(F)cc23)C(C)C1 (stereo not given) + CCN1C(C(=O)NC23CCC(C(=O)O)(CC2)CC3)C(c2cccc(Cl)c2F)C2(C(=O)Nc3cc(Cl)ccc32)C12CCCCC2 | > 10 | > 10 | > 10 | > 10 | > 10 | 94.4 | 100 | 109 | 101 | 102 | 94.4 | 98.4 | 101 | 102 | 107 | 106 | 94.3 | 94.3 | 95.4 | 93.1 | viability, T/C [5]: 115%; viability, T/C [6]: 105%; viability, T/C [11]: 104%; viability, T/C [12]: 119%; viability, T/C [17]: 99.8%; viability, T/C [18]: 112%; viability, T/C [22]: 97.9%; viability, T/C [23]: 95.5%; viability, T/C [24]: 99.5%; viability, T/C [25]: 91.6%; viability, T/C [26]: 93.2%; viability, T/C [27]: 98.5%; viability, T/C [28]: 93.7%; viability, T/C [29]: 93.4%; viability, T/C [30]: 103%
CNC(C)C(=O)NC1CN(S(=O)(=O)c2cccc(S(=O)(=O)N3CCC4CCC(C(=O)NC(c5ccccc5)c5ccccc5)N4C(=O)C(NC(=O)C(C)NC)C3)c2)CCC2CCC(C(=O)NC(c3ccccc3)c3ccccc3)N2C1=O (stereo not given) + CCN1C(C(=O)NC23CCC(C(=O)O)(CC2)CC3)C(c2cccc(Cl)c2F)C2(C(=O)Nc3cc(Cl)ccc32)C12CCCCC2 | > 1 | > 1 | > 1 | > 1 | > 1 | 112 | 111 | 99.8 | 109 | 108 | 91.5 | 101 | 115 | 94.6 | 104 | 105 | 100 | 93.4 | 97.5 | 87.1 | viability, T/C [31]: 121%; viability, T/C [32]: 107%; viability, T/C [33]: 101%; viability, T/C [34]: 94.8%; viability, T/C [35]: 116%; viability, T/C [36]: 118%; viability, T/C [37]: 97%; viability, T/C [38]: 98.9%; viability, T/C [22]: 91.1%; viability, T/C [39]: 97.2%; viability, T/C [40]: 98.8%; viability, T/C [25]: 91.8%; viability, T/C [26]: 90.8%; viability, T/C [27]: 84.2%; viability, T/C [28]: 99.4%
COc1c(OCCCN2CCOCC2)ccc2c3n(c(=NC(=O)c4cnc(N)nc4)nc12)CCN3 + CCN1C(C(=O)NC23CCC(C(=O)O)(CC2)CC3)C(c2cccc(Cl)c2F)C2(C(=O)Nc3cc(Cl)ccc32)C12CCCCC2 | > 1 | > 1 | > 1 | 0.484 | 0.243 | 95.8 | 100 | 96.7 | 59.2 | 87.2 | 90.3 | 80.5 | 58.7 | 81.2 | 74.8 | 57.6 | 51.5 | 81 | 64.9 | 55.8 | viability, T/C [31]: 107%; viability, T/C [32]: 114%; viability, T/C [33]: 94.6%; viability, T/C [34]: 96.7%; viability, T/C [35]: 93.2%; viability, T/C [36]: 93.6%; viability, T/C [37]: 89.6%; viability, T/C [38]: 92.2%; viability, T/C [22]: 43.6%; viability, T/C [39]: 92.4%; viability, T/C [40]: 89.8%; viability, T/C [25]: 86.7%; viability, T/C [26]: 63.1%; viability, T/C [27]: 47.7%; viability, T/C [28]: 36%
